Assay results as given in US20110086759A1, “CHEMICAL COMPOUNDS” (SYNGENTA CROP PROTECTION, INC., priority 2007, published 2011).

Experiments:
Format in all cases: in vivo
[1] = tested on: Alopecurus myosuroides (ALOMY); assay: Pre-emergence biological efficacy, glasshouse pot test; settings: 312 h
In short: (§1)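 Visual phytotoxicity (0 no damage, 100 total damage) assessed 13 d after treatment. Soil-sown pots sprayed one day post-sowing; dose 1000 or 250 g/ha; formulation in acetone/water 50:50, 0.5% Tween 20.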

[2] = tested on: Amaranthus retoflexus (AMARE); assay: as above; settings: Amaranthus retroflexus, 312 h
In short: as §1

[3] = tested on: Echinochloa crus-galli (ECHCG); assay: as above; settings: 312 h
In short: as §1

[4] = tested on: Ipomea hederaceae (IPOHE); assay: as above; settings: Ipomoea hederacea, 312 h
In short: as §1

Setaria faberi (SETFA) [5] = assay: as above; settings: 312 h
In short: as §1

Solanum nigrum (SOLNI) [6] = assay: as above; settings: 312 h
In short: as §1

[7] = tested on: Alopecurus myosuroides (ALOMY); assay: Post-emergence biological efficacy, glasshouse pot test; settings: 312 h
In short: (§2)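 Pot-grown weeds were sprayed 8 days after sowing with test compound in acetone/water (50:50) with 0.5% Tween 20 at 1000 or 250 g/ha. Glasshouse at 24/16° C day/night, 14 h light, 65% humidity. Damage scored 0-100 (100 = total damage) after 13 days.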

[8] = tested on: Amaranthus retoflexus (AMARE); assay: as above; settings: Amaranthus retroflexus, 312 h
In short: as §2

[9] = tested on: Echinochloa crus-galli (ECHCG); assay: as above; settings: 312 h
In short: as §2

[10] = tested on: Ipomea hederaceae (IPOHE); assay: as above; settings: Ipomoea hederacea, 312 h
In short: as §2

Setaria faberi (SETFA) [11] = assay: as above; settings: 312 h
In short: as §2

Solanum nigrum (SOLNI) [12] = assay: as above; settings: 312 h
In short: as §2

[13] = pre-emergence, 1,000 g/ha, evaluated after 13 days (100=total damage; 0=no damage), read-out: Percentage damage ALOMY
[14] = pre-emergence, 1,000 g/ha, evaluated after 13 days (100=total damage; 0=no damage), read-out: Percentage damage AMARE
[15] = pre-emergence, 1,000 g/ha, evaluated after 13 days (100=total damage; 0=no damage), read-out: Percentage damage ECHCG
[16] = pre-emergence, 1,000 g/ha, evaluated after 13 days (100=total damage; 0=no damage), read-out: Percentage damage IPOHE
[17] = pre-emergence, 1,000 g/ha, evaluated after 13 days (100=total damage; 0=no damage), read-out: Percentage damage SETFA
[18] = pre-emergence, 1,000 g/ha, evaluated after 13 days (100=total damage; 0=no damage), read-out: Percentage damage SOLNI
[19] = post-emergence, 1,000 g/ha, evaluated after 13 days (100=total damage; 0=no damage), read-out: Percentage damage caused to weed species, ALOMY
[20] = post-emergence, 1,000 g/ha, evaluated after 13 days (100=total damage; 0=no damage), read-out: Percentage damage caused to weed species, AMARE
[21] = post-emergence, 1,000 g/ha, evaluated after 13 days (100=total damage; 0=no damage), read-out: Percentage damage caused to weed species, ECHCG
[22] = post-emergence, 1,000 g/ha, evaluated after 13 days (100=total damage; 0=no damage), read-out: Percentage damage caused to weed species, IPOHE
[23] = post-emergence, 1,000 g/ha, evaluated after 13 days (100=total damage; 0=no damage), read-out: Percentage damage caused to weed species, SETFA
[24] = post-emergence, 1,000 g/ha, evaluated after 13 days (100=total damage; 0=no damage), read-out: Percentage damage caused to weed species, SOLNI
[25] = pre-emergence, rate 1,000 g/ha, evaluated after 13 days (100=total damage to plant; 0=no damage), read-out: Percentage damage caused to weed species, ALOMY
[26] = pre-emergence, rate 1,000 g/ha, evaluated after 13 days (100=total damage to plant; 0=no damage), read-out: Percentage damage caused to weed species, AMARE
[27] = pre-emergence, rate 1,000 g/ha, evaluated after 13 days (100=total damage to plant; 0=no damage), read-out: Percentage damage caused to weed species, ECHCG
[28] = pre-emergence, rate 1,000 g/ha, evaluated after 13 days (100=total damage to plant; 0=no damage), read-out: Percentage damage caused to weed species, IPOHE
[29] = pre-emergence, rate 1,000 g/ha, evaluated after 13 days (100=total damage to plant; 0=no damage), read-out: Percentage damage caused to weed species, SETFA
[30] = pre-emergence, rate 1,000 g/ha, evaluated after 13 days (100=total damage to plant; 0=no damage), read-out: Percentage damage caused to weed species, SOLNI
[31] = Rate 1,000 g/ha, post-emergence spray, evaluated after 13 days (100=total damage to plant; 0=no damage to plant), read-out: Percentage damage caused to weed species, post-emergence, ALOMY
[32] = Rate 1,000 g/ha, post-emergence spray, evaluated after 13 days (100=total damage to plant; 0=no damage to plant), read-out: Percentage damage caused to weed species, post-emergence, AMARE
[33] = Rate 1,000 g/ha, post-emergence spray, evaluated after 13 days (100=total damage to plant; 0=no damage to plant), read-out: Percentage damage caused to weed species, post-emergence, ECHCG
[34] = Rate 1,000 g/ha, post-emergence spray, evaluated after 13 days (100=total damage to plant; 0=no damage to plant), read-out: Percentage damage caused to weed species, post-emergence, IPOHE
[35] = Rate 1,000 g/ha, post-emergence spray, evaluated after 13 days (100=total damage to plant; 0=no damage to plant), read-out: Percentage damage caused to weed species, post-emergence, SETFA
[36] = Rate 1,000 g/ha, post-emergence spray, evaluated after 13 days (100=total damage to plant; 0=no damage to plant), read-out: Percentage damage caused to weed species, post-emergence, SOLNI

## COC(=O)c1nc(C2CC2)nc(NC(CO)C2CCOC2)c1Cl (stereo not drawn) [Compound 4-201, 5-Chloro-2-cyclopropyl-4-(2-hydroxy-1-tetrahydrofuran-3-yl-ethylamino)-6-methoxycarbonyl-pyrimidine]
[1]; [13]
  pest or weed control at 1000 g/ha: 0%
[2]; [14]
  pest or weed control at 1000 g/ha: 100%
[3]; [15]
  pest or weed control at 1000 g/ha: 20%
[4]; [16]
  pest or weed control at 1000 g/ha: 100%
Setaria faberi (SETFA) [5]; [17]
  pest or weed control at 1000 g/ha: 10%
Solanum nigrum (SOLNI) [6]; [18]
  pest or weed control at 1000 g/ha: 100%
[7]; [19]
  pest or weed control at 1000 g/ha: 10%
[8]; [20]
  pest or weed control at 1000 g/ha: 100%
[9]; [21]
  pest or weed control at 1000 g/ha: 10%
[10]; [22]
  pest or weed control at 1000 g/ha: 60%
Setaria faberi (SETFA) [11]; [23]
  pest or weed control at 1000 g/ha: 20%
Solanum nigrum (SOLNI) [12]; [24]
  pest or weed control at 1000 g/ha: 90%

## COC(=O)c1nc(C2CC2)nc(NCc2c(Cl)cccc2Cl)c1Cl [Compound 4-104, 5-Chloro-2-cyclopropyl-4-(2,6-dichlorophenyl-methylamino)-6-methoxycarbonyl-pyrimidine]
[1]; [13]
  pest or weed control at 1000 g/ha: 10%
[2]; [14]
  pest or weed control at 1000 g/ha: 40%
[3]; [15]
  pest or weed control at 1000 g/ha: 20%
[4]; [16]
  pest or weed control at 1000 g/ha: 20%
Setaria faberi (SETFA) [5]; [17]
  pest or weed control at 1000 g/ha: 0%
Solanum nigrum (SOLNI) [6]; [18]
  pest or weed control at 1000 g/ha: 30%
[7]; [19]
  pest or weed control at 1000 g/ha: 20%
[8]; [20]
  pest or weed control at 1000 g/ha: 100%
[9]; [21]
  pest or weed control at 1000 g/ha: 90%
[10]; [22]
  pest or weed control at 1000 g/ha: 100%
Setaria faberi (SETFA) [11]; [23]
  pest or weed control at 1000 g/ha: 90%
Solanum nigrum (SOLNI) [12]; [24]
  pest or weed control at 1000 g/ha: 90%

## COC(=O)c1nc(C2CC2)nc(N(C)Cc2ccncc2)c1Cl [Compound 5-160, 5-Chloro-2-cyclopropyl-6-methoxycarbonyl-4-(N-methyl-N-pyridin-4-ylmethyl-amino)pyrimidine]
[1]; [25]
  pest or weed control at 1000 g/ha: 0%
[2]; [26]
  pest or weed control at 1000 g/ha: 80%
[3]; [27]
  pest or weed control at 1000 g/ha: 20%
[4]; [28]
  pest or weed control at 1000 g/ha: 70%
Setaria faberi (SETFA) [5]; [29]
  pest or weed control at 1000 g/ha: 0%
Solanum nigrum (SOLNI) [6]; [30]
  pest or weed control at 1000 g/ha: 40%
[7]; [31]
  pest or weed control at 1000 g/ha: 20%
[8]; [32]
  pest or weed control at 1000 g/ha: 100%
[9]; [33]
  pest or weed control at 1000 g/ha: 0%
[10]; [34]
  pest or weed control at 1000 g/ha: 100%
Setaria faberi (SETFA) [11]; [35]
  pest or weed control at 1000 g/ha: 60%
Solanum nigrum (SOLNI) [12]; [36]
  pest or weed control at 1000 g/ha: 80%

## COC(=O)c1nc(-c2ccc(Cl)c(F)c2Cl)nc(NCc2ccco2)c1Cl [Compound 224-48, 5-Chloro-2-(2,4-dichloro-3-fluorophenyl)-4-(furan-2-ylmethyl-amino)-6-methoxy-carbonylpyrimidine]
[1]; [25]
  pest or weed control at 1000 g/ha: 60%
[2]; [26]
  pest or weed control at 1000 g/ha: 100%
[3]; [27]
  pest or weed control at 1000 g/ha: 0%
[4]; [28]
  pest or weed control at 1000 g/ha: 70%
Setaria faberi (SETFA) [5]; [29]
  pest or weed control at 1000 g/ha: 50%
Solanum nigrum (SOLNI) [6]; [30]
  pest or weed control at 1000 g/ha: 90%
[7]; [31]
  pest or weed control at 1000 g/ha: 60%
[8]; [32]
  pest or weed control at 1000 g/ha: 100%
[9]; [33]
  pest or weed control at 1000 g/ha: 40%
[10]; [34]
  pest or weed control at 1000 g/ha: 70%
Setaria faberi (SETFA) [11]; [35]
  pest or weed control at 1000 g/ha: 80%
Solanum nigrum (SOLNI) [12]; [36]
  pest or weed control at 1000 g/ha: 90%

## COC(=O)c1nc(C2CC2)nc(NCc2ccc(C(F)(F)F)cc2)c1Cl [Compound 4-77, 5-Chloro-2-cyclopropyl-6-methoxycarbonyl-4-(4-trifluoromethyl-phenylmethyl-amino)pyrimidine]
[1]; [13]
  pest or weed control at 1000 g/ha: 0%
[2]; [14]
  pest or weed control at 1000 g/ha: 50%
[3]; [15]
  pest or weed control at 1000 g/ha: 30%
[4]; [16]
  pest or weed control at 1000 g/ha: 40%
Setaria faberi (SETFA) [5]; [17]
  pest or weed control at 1000 g/ha: 0%
Solanum nigrum (SOLNI) [6]; [18]
  pest or weed control at 1000 g/ha: 40%
[7]; [19]
  pest or weed control at 1000 g/ha: 20%
[8]; [20]
  pest or weed control at 1000 g/ha: 100%
[9]; [21]
  pest or weed control at 1000 g/ha: 90%
[10]; [22]
  pest or weed control at 1000 g/ha: 100%
Setaria faberi (SETFA) [11]; [23]
  pest or weed control at 1000 g/ha: 90%
Solanum nigrum (SOLNI) [12]; [24]
  pest or weed control at 1000 g/ha: 100%
